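A five-concentration, 48-hour dose response in 96-well plates underlies each endpoint, interpolated linearly between surrounding concentrations. GI50 marks 50% less growth. TGI marks complete inhibition of growth.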
Assays:
Test in all cases: NCI tumour cell line growth inhibition, 48 h
[1] = test system: K-562 leukemia
[2] = test system: NCI-H460 lung
[3] = test system: MOLT-4 leukemia
[4] = test system: PC-3 prostate
[5] = test system: HOP-92 NSCLC
[6] = test system: SF-295 CNS
[7] = test system: SK-MEL-28 melanoma
[8] = test system: SNB-19 CNS
[9] = test system: UO-31 renal
[10] = test system: SK-MEL-2 melanoma

| SMILES | TGI [1] [µM] | TGI [2] [µM] | TGI [3] [µM] | TGI [4] [µM] | TGI [5] [µM] | TGI [6] [µM] | TGI [7] [µM] | TGI [8] [µM] | TGI [9] [µM] | TGI [10] [µM] | GI50 [2] [µM] | GI50 [5] [µM] | GI50 [6] [µM] | GI50 [7] [µM] | GI50 [9] [µM] | GI50 [10] [µM] | GI50 [1] [µM] | GI50 [3] [µM] | GI50 [8] [µM] |
| --- | --- | --- | --- | --- | --- | --- | --- | --- | --- | --- | --- | --- | --- | --- | --- | --- | --- | --- | --- |
| Cc1cccc2c1Oc1ccccc1C2NC(=O)c1ccc([N+](=O)[O-])cc1 (stereo not drawn) | > 100 | > 100 | > 100 | > 100 | > 100 | > 100 | > 100 | > 100 | > 100 | > 100 |  |  |  |  |  |  |  |  |  |
| CC1=C2C(=O)[C@H]3[C@@H](CC=C4C[C@@H](O)CC[C@@]43C)[C@@H]2CC[C@]12O[C@@H]1C[C@H](C)CN[C@H]1[C@H]2C | > 100 | > 65 | > 100 | > 100 | 26.6 | > 58.7 | > 92.1 | > 57.6 | > 54.3 | > 72.5 |  |  |  |  |  |  |  |  |  |
| COc1nc(SC)nc2c1cnn2C1OC(C(O)CO)C(OC)C1O (stereo not drawn) | > 100 | > 100 | 69 |  |  | > 100 | > 100 | > 100 | > 100 | > 100 |  |  |  |  |  |  |  |  |  |
| CCCCC(C)C1CCC2(C)C=CC(=O)C(C)=C2C1O (stereo not drawn) | > 100 | > 100 | > 100 |  | > 100 | > 100 | > 100 | > 100 | > 100 | > 100 |  |  |  |  |  |  |  |  |  |
| CCC1=CC2CN3CCc4c([nH]c5ccccc45)C(C(=O)OC)(C2)C13 (stereo not drawn) | 202 | 102 | 181 |  | 33.9 | 90.1 | 98.4 | 68.4 | 71.4 | 114 |  |  |  |  |  |  |  |  |  |
| NCCCNc1nc2ccccc2c2c(=O)c3cc(C(F)(F)F)ccc3sc12 |  | 3.17 |  |  | 2.85 | 3.21 | 3.23 |  | 2.74 | 3.82 | 1.66 | 1.37 | 1.8 | 1.81 | 1.4 | 1.93 |  |  |  |
| Cc1[nH]c(=O)nc(N/N=C/c2ccc(Cl)cc2)c1C(=O)NC(C)(CO)CO | > 100 | > 100 | > 100 | > 100 | > 100 | > 100 | > 100 | > 100 | > 100 | > 100 |  |  |  |  |  |  |  |  |  |
| CC1(C23CC4CC(CC(C4)C2)C3)n2c(=O)n(-c3ccccc3)c(=O)n2C1(C)C12CC3CC(CC(C3)C1)C2 (stereo not drawn) | > 100 | > 100 | > 100 | > 100 | > 100 | > 100 | > 100 | > 100 | > 100 | > 100 |  |  |  |  |  |  |  |  |  |
| CN1C2CC(=O)CC1[C@H](O)[C@@H]2O | > 100 | > 100 | > 100 | > 100 |  | > 100 | > 100 | > 100 | > 100 | > 100 |  |  |  |  |  |  |  |  |  |
| CCOC(=O)c1csc(NC(=O)CCN2CCCCC2)n1 | > 100 | > 100 | > 100 | > 100 | > 100 | > 100 | > 100 | > 100 | > 100 | > 100 |  |  |  |  |  |  |  |  |  |
| COCC1CCCN1c1ccc(/C=C(/C#N)C(N)=S)cc1 (stereo not drawn) | > 100 | > 100 | > 100 |  | 89.2 | > 100 | > 100 | > 100 | > 100 | > 100 | > 100 | 8.32 | > 100 | > 100 | > 100 | > 100 | 30.2 | > 100 | > 100 |
| COc1cc(C2C(Cl)C(=O)N2NC(=O)c2ccccc2O)ccc1O (stereo not drawn) | > 100 | > 100 | > 100 |  |  | > 100 | > 100 | > 100 | > 100 | > 100 |  |  |  |  |  |  |  |  |  |

Reference: PubChem BioAssay (NCI)
